Measured values as given in ChEMBL document CHEMBL5143718, “Rational Design of a Theranostic Agent Triggered by Endogenous Nitric Oxide in a Cellular Model of Alzheimer's Disease” (J Med Chem, 2022).
The source made the active and inactive calls. The rule behind the calls is not given here.

How the values were obtained:
[1] = Cytotoxicity against mouse HT-22 cells assessed as cell viability at 5 uM after 48 hrs by CCK8 assay; assay type: toxicity, cell-based; conditions: read-out: Activity
[2] = test system: HT-22; assay: Antioxidant activity in mouse HT-22 cells cocultured with BV-2 cells assessed as reduction in glutamic acid level at 5 uM incubated for 24 hrs; assay type: functional
[3] = Drug uptake in INFgamma-stimulated mouse BV-2 cells assessed as increase in fluorescence at 10 uM pretreated with INFgamma and L-NAA for 16 hrs followed by compound addition and measured after 3 hrs; assay type: ADME, cell-based; conditions: bv-2, 3 h
[4] = Drug uptake in LPS-stimulated mouse BV-2 cells assessed as increase in fluorescence at 10 uM pretreated with LPS and carboxyl-PTIO for 3 hrs followed by compound addition and measured after 3 hrs; assay type: ADME, cell-based
[5] = Cytotoxicity against mouse HT-22 cells cocultured with BV-2 cells assessed as cell viability at 5 uM after 48 hrs by CCK8 assay (reference value: 5.19 +/- 1.60%); assay type: toxicity, cell-based; conditions: read-out: Activity
[6] = Drug uptake in L-arginine stimulated mouse BV-2 cells assessed as increase in fluorescence at 10 uM pretreated with L-arginine and L-NAA for 16 hrs followed by compound addition and measured after 3 hrs; assay type: ADME, cell-based; conditions: bv-2, 3 h
[7] = Drug uptake in mouse HT-22 cells cocultured with BV-2 cells assessed as increase in fluorescence at 10 uM after 12 hrs; assay type: ADME, cell-based; conditions: ht-22, 12 h
[8] = Drug uptake in L-arginine stimulated mouse BV-2 cells assessed as increase in fluorescence at 10 uM pretreated with L-arginine and carboxyl-PTIO for 3 hrs followed by compound addition and measured after 3 hrs; assay type: ADME, cell-based
[9] = Drug uptake in LPS-stimulated mouse BV-2 cells assessed as increase in fluorescence at 10 uM pretreated with LPS and L-NAA for 16 hrs followed by compound addition and measured after 3 hrs; assay type: ADME, cell-based; conditions: bv-2, 3 h
[10] = Drug uptake in INFgamma-stimulated mouse BV-2 cells assessed as increase in fluorescence at 10 uM pretreated with INFgamma and carboxyl-PTIO for 3 hrs followed by compound addition and measured after 3 hrs; assay type: ADME, cell-based
[11] = Drug uptake in mouse BV-2 cells assessed as increase in fluorescence at 10 uM after 3 hrs; assay type: ADME, cell-based; conditions: bv-2, 3 h
[12] = test system: HT-22; assay: Cytotoxicity against mouse HT-22 cells cocultured with BV-2 cells assessed as increase in live/dead cells ratio at 5 uM after 48 hrs by Live/dead staining based fluorescence microscopic analysis; assay type: toxicity, cell-based; conditions: ht-22, 48 h
[13] = test system: HT-22; assay: Antioxidant activity in mouse HT-22 cells cocultured with BV-2 cells assessed as ROS scavenging activity at 5 uM incubated for 48 hrs by DCFH-DA staining based microplate reader analysis; assay type: functional
[14] = test system: HT-22; assay: Antioxidant activity in mouse HT-22 cells cocultured with BV-2 cells assessed as upregulation of HO-1 mRNA expression at 5 uM after 48 hrs by qRT-PCR analysis; assay type: functional, cell-based
[15] = test system: HT-22; assay: Cytotoxicity against mouse HT-22 cells assessed as reduction in cell viability at 5 uM after 24 hrs by CCK8 assay; assay type: toxicity, cell-based; conditions: ht-22, 24 h
[16] = test system: BV-2; assay: Cytotoxicity against mouse BV-2 cells assessed as reduction in cell viability at 1 to 10 uM incubated for 24 hrs by CCK8 assay; assay type: toxicity, cell-based; conditions: bv-2, 24 h, dose 1-10 µM
[17] = test system: HT-22; assay: Antioxidant activity in mouse HT-22 cells cocultured with BV-2 cells assessed as increase in GSH level at 5 uM incubated for 48 hrs by DCFH-DA staining based microplate reader analysis; assay type: functional
[18] = test system: HT-22; assay: Cytotoxicity against mouse HT-22 cells assessed as reduction in cell viability at < 5 uM incubated for 24 hrs by CCK8 assay; assay type: toxicity, cell-based; conditions: ht-22, 24 h
[19] = test system: HT-22; assay: Cytotoxicity against mouse HT-22 cells assessed as increase in live/dead cells ratio at 5 uM after 48 hrs by Live/dead staining based fluorescence microscopic analysis; assay type: toxicity, cell-based; conditions: ht-22, 48 h
[20] = test system: HT-22; assay: Cytotoxicity against mouse HT-22 cells assessed as reduction in cell viability at 5 uM after 36 hrs by CCK8 assay; assay type: toxicity, cell-based; conditions: ht-22, 36 h
[21] = Effective permeability of compound in PBS buffer at pH 7.4 incubated for 18 hrs by PAMPA assay; assay type: ADME; conditions: read-out: Peff
[22] = test system: HT-22; assay: Cytotoxicity against mouse HT-22 cells assessed as reduction in cell viability at higher concentration incubated for 24 hrs by CCK8 assay; assay type: toxicity, cell-based; conditions: ht-22, 24 h
[23] = test system: HT-22; assay: Antioxidant activity in mouse HT-22 cells cocultured with BV-2 cells assessed as upregulation of NQO1 mRNA expression at 5 uM after 48 hrs by qRT-PCR analysis; assay type: functional, cell-based
[24] = test system: BV-2; assay: Cytotoxicity against mouse BV-2 cells assessed as reduction in cell viability at 10 uM incubated for 24 hrs by CCK8 assay; assay type: toxicity, cell-based; conditions: bv-2, 24 h

SMILES	viability at 48 h, 5 µM [1]	Activity [2]	Drug uptake [3]	Drug uptake [4]	viability at 48 h, 5 µM [5]	Drug uptake [6]	Drug uptake [7]	Drug uptake [8]	Drug uptake [9]	Drug uptake [10]	Drug uptake [11]	Activity [12]	Activity [13]	Activity [15]	Activity [17]	Activity [18]	Activity [20]	Activity [22]	further results
CC12CC3CC(C)(C1)CC(NCCOCCOCCOCCO)(C3)C2	20.1%	Active																	
O=C1C(=O)c2ccccc2-c2ccccc21 [9,10-PHENANTHRENEQUINONE]			Active	Active	4.46%	Active	Active	Active	Active	Active	Active	Non-Toxic							
O=C1C=CC(=O)C=C1 [BENZOQUINONE]			Active	Active	4.33%	Active	Active	Active	Active	Active	Active	Non-Toxic							
CC12CC3CC(C)(C1)CC(NCCOCCOCCOCCOc1ccc(N4c5ccccc5N(c5ccccc5)c5c4c4ccccc4c4ccccc54)cc1)(C3)C2	45.9%	0.32											732	Non-Toxic	103.7	Non-Toxic	Non-Toxic	Non-Toxic	Activity [14]: Active; Activity [16]: Non-Toxic; Activity [19]: Non-Toxic; Papp at 18 h [21]: 5.73 ×10⁻⁶ cm/s; Activity [23]: Active
CC12CC3CC(C)(C1)CC(N)(C3)C2 [MEMANTINE]	13.9%	0.47											586.7	Non-Toxic	91.9	Non-Toxic	Non-Toxic	Non-Toxic	Activity [24]: > 70%
